# Assay results from PMC10301333, “The C-Terminus of Panusin, a Lobster β-Defensin, Is Crucial for Optimal Antimicrobial Activity and Serum Stability” (Pharmaceutics, 2023).
# Like-named read-outs stand apart in the source and are kept apart here. Bridge positions count the residues as written; N and C are the ends. Peptide text beside a SMILES is read from it.
# Tests used:
# horse red blood cells = test: Hemolytic activity (hemoglobin release)
# Procedure: Both peptides were tested for hemolytic activity on horse red blood cells (RBCs), as described earlier. Briefly, fresh RBCs in PBS (pH 7.4) were first centrifuged 3 × 1500× g for 5 min, then diluted 1:10 with PBS to yield an RBC concentration of ~5 × 10^8 cells/mL. RBCs were then incubated for 1 h at 37 °C with 2-fold serial dilutions of PaD or Ct_PaD covering a 0.24–250 μM concentration range. Next, 0.1% TritonX100 and PBS were used as positive and negative controls, respectively. After incubation, samples were centrifuged at 1500× g for 10 min at room temperature and the supernatant (60 μL) was transferred to a flat-bottomed 96-well polypropylene microplate (Greiner, Frickenhausen, Germany). Hemoglobin release was then measured as OD at 540 nm in a VICTOR3 microplate reader (Perkin Elmer, Waltham, MA, USA). Percent hemolysis was calculated as indicated below (Equation (1)).
# human erythrocytes = conditions: natural panusin; cited from earlier work
# Text: Panusin, isolated from hemocytes of the spiny lobster Panulirus argus (PaD), is representative of those invertebrate peptides, which are related to mammalian β-defensins. PaD is comprised of 39 amino acid residues that fold into a well-described cysteine-stabilized αβ (CSαβ) motif, consisting of an α-helix and three antiparallel […]. These […] are strongly stabilized by three disulfide bonds. […] These properties mark it a ...
# in vitro = conditions: human, human serum (50% v/v in water), t1/2 values, proteolysis in human serum, 37 °C, 24 h incubation
# Procedure: Peptide samples (500 μL, 500 μM in H2O) were mixed and incubated with 500 μL of human serum (Sigma-Aldrich, St. Louis, MO, USA) for 24 h at 37 °C. Aliquots (120 μL) were taken at 0, 30, 120, 360, 720, and 1440 min and treated with 20 μL of trichloroacetic acid (15% (v/v) in H2O). The suspension was centrifuged for 30 min at 13,000 rpm, 4 °C, and the supernatant was analyzed by RP-HPLC as described above. The unaltered peptide was determined by RP-HPLC peak integration, expressed as the percent of the amount at t0, and data were fitted to a one-phase exponential decay model using GraphPad Prism 8.01 to estimate half-life time (t1/2). Results are the average of three independent runs.
# Enterococcus faecium = conditions: for MBC: 24 h
# Procedure: (§1) Antimicrobial activities of both PaD and Ct_PaD were determined in a modified microdilution assay as described previously for other β-defensins such as peptides. The assay was performed in sterile polypropylene 96-well plates that prevent peptide binding (Greiner, Frickenhausen, Germany). From a bacterial isolate, a single colony was seeded in Mueller Hinton Broth (MHB, Condalab, Torrejón de Ardoz, Spain) and allowed to grow at 37 °C in an incubator with orbital shaking at 250 rpm overnight. Subsequently, a new bacterial culture was seeded from the overnight culture and allowed to grow to an OD of 0.5 at 600 nm. The bacterial suspension was diluted to a final concentration of 5 × 10^5 CFU (colony formation unit)/mL in sterile 10 mM phosphate buffer (PB: 2.46 mM NaH2PO4, 7.5 mM Na2HPO4, pH 7.4), used as the working culture. Next, 50 μL of 2-fold serial dilutions of each peptide in PB were placed on the plates to provide a final 0.097–100 µM concentration range after which 50 μL of working culture was applied to each well. The plate was first incubated for 2 h at 37 °C, then 100 μL of MHB 2× was added to each well and was incubated at 37 °C overnight with shaking. The growth of bacteria was measured by the optical density at 600 nm in a microplate reader (Tecan, Männedorf, Switzerland). The minimum inhibitory concentration (MIC) was defined as the minimum peptide concentration in which the microorganism is unable to grow. The results are the average of three independent studies. […] MBC was defined for each peptide as the lowest concentration with no bacterial growth detected.
# Acinetobacter baumannii = conditions: for MBC: 24 h
# Procedure: as §1
# Escherichia coli = conditions: for MBC: 24 h
# Procedure: as §1
# Staphylococcus aureus = conditions: for MBC: 24 h
# Procedure: as §1
# Pseudomonas aeruginosa = conditions: for MBC: 24 h
# Procedure: as §1
# Micrococcus luteus = conditions: for MBC: 24 h
# Procedure: as §1
# MTT cytotoxicity assay = type: cell-based; conditions: human
# Procedure: MRC-5 cells were cultured in Eagle’s minimum essential medium (MEMα), supplemented with 10% (v/v) fetal bovine serum (FBS) and a 1% penicillin (100 IU/mL)/streptomycin (100 μg/mL) solution, and maintained at 37 °C in a humidified atmosphere with 5% CO2. After cells were grown, they were seeded into 96-well plates at 3 × 10^4 cells/well and cultured overnight to adhere to the plate. Subsequently, adherent cells were incubated for 4 h under standard conditions (5% CO2, 37 °C) with 2-fold serial dilutions of each peptide in a 1.56–200 μM concentration range. Following incubation, the peptide-containing medium was replaced with MEM supplemented with FBS and 3-(4,5-dimethylthiazol-2-yl)-2,5 diphenyltetrazolium bromide (MTT) at 0.4 mg/mL, and the cells were further incubated for 120 min. Formazan crystals in live cells were detected after disruption with 200 μL of DMSO by OD measurement at 570 nm in a Tecan microplate reader. […] Data are the average of three independent replicates.
# [1] = Analytical RP-HPLC retention time as measure of hydrophobic character; type: physicochemical; conditions: chromatographic, Luna C18 4.6 × 50 mm, 3 µm; 10 to 50 linear gradient of MeCN (0.036% TFA) into H2O (0.045% TFA) over 15 min, 1 mL/min, UV 220 nm; used as indicator of hydrophobic character
# Procedure: Analytical RP-HPLC was performed on an LC-2010 instrument (Shimadzu, Kyoto, Japan) using a Luna C18 column (4.6 × 50 mm, 3 µm; Phenomenex, Torrance, CA, USA), eluted with linear gradients of solvent B (0.036% TFA in MeCN) into solvent A (0.045% TFA in H2O) over 15 min at a 1 mL/min flow rate, with UV detection at 220 nm.
# The HPLC retention times of PaD and Ct_PaD reflect some differences in hydrophobic character. […] Such differences in hydrophobicity might influence both antimicrobial and cytotoxic activity, which were therefore assessed next.
# Supplementary Materials: The C-terminus of Panusin, a Lobster β-defensin, Is Crucial for Optimal Antimicrobial
# Activity and Serum Stability
# Roberto Bello-Madruga, Javier Valle, M. Ángeles Jiménez, Marc Torrent, Vivian Montero-Alejoand David Andreu
# 1. Synthetic Peptide Characterization
# Table S1. Peptide Analytical Data.
# 1 Theoretical Experimental HPLC Retention Purity
# Peptide Mass (Da) Mass (Da)2 Time (min)3 (HPLC, %)4
# 1 All peptides are C-terminal carboxamides; 2 Determined by LC-MS, 3 Elution was carried out with a 10 to 50 linear gradient over 15 min; 4 Determined by analytical HPLC.
# Figure S1. RP-HPLC elution profile of purified peptides. […]
compound,measurement,setting,value
"CC(C)C[C@@H]1NC(=O)[C@H](CCCNC(=N)N)NC(=O)[C@H](CC(N)=O)NC(=O)CNC(=O)[C@H](Cc2ccc(O)cc2)NC(=O)[C@@H]2CCCN2C(=O)[C@@H]2CSSC[C@@H](C(=O)N[C@@H](CCCNC(=N)N)C(=O)N[C@@H](CCCNC(=N)N)C(=O)N[C@@H](CO)C(=O)N[C@@H](Cc3ccc(O)cc3)C(N)=O)NC(=O)[C@@H]3CSSC[C@H](NC(=O)[C@H](CC(=O)O)NC(=O)CNC(=O)[C@@H](NC(=O)[C@H](Cc4ccc(O)cc4)NC(=O)[C@@H](N)CO)C(C)C)C(=O)NCC(=O)N[C@@H](CO)C(=O)N[C@@H](CC(N)=O)C(=O)NCC(=O)NCC(=O)N[C@@H](CO)C(=O)N[C@@H](CSSC[C@H](NC(=O)[C@H](Cc4ccccc4)NC(=O)[C@H](Cc4ccc(O)cc4)NC(=O)[C@H](CC(N)=O)NC1=O)C(=O)N1CCC[C@H]1C(=O)N[C@@H](CC(C)C)C(=O)NCC(=O)N[C@@H](CCCNC(=N)N)C(=O)N[C@@H]([C@@H](C)O)C(=O)N3)C(=O)N[C@@H](C(C)C)C(=O)N[C@@H](CO)C(=O)N[C@@H](CO)C(=O)N[C@@H](Cc1ccc(O)cc1)C(=O)N2 [PaD] (H-SYVGDCGSNGGSCVSSYCPYGNRLNYFCPLGRTCCRRSY-NH2; disulfide 6-34, 13-28, 18-35)",Hemolysis % (250 µM peptide),horse red blood cells; pH 7.4,0.6 ± 0.02%
same,Hemolytic effect on human erythrocytes,human erythrocytes,no hemolytic effect
same,half-life at 250 µM,in vitro,> 24 h
same,MIC,"Enterococcus faecium; 2 h, pH 7.4",25 µM
same,MBC,Enterococcus faecium,25 µM
same,MIC,"Acinetobacter baumannii; 2 h, pH 7.4",25 µM
same,MBC,Acinetobacter baumannii,25 µM
same,MIC,"Escherichia coli; 2 h, pH 7.4",12.5 µM
same,MBC,Escherichia coli,12.5 µM
same,MIC,"Staphylococcus aureus; 2 h, pH 7.4",25 µM
same,MBC,Staphylococcus aureus,25 µM
same,MIC,"Pseudomonas aeruginosa; 2 h, pH 7.4",25 µM
same,MBC,Pseudomonas aeruginosa,25 µM
same,MIC,"Micrococcus luteus; 2 h, pH 7.4",12.5 µM
same,MBC,Micrococcus luteus,12.5 µM
same,IC50 at 4 h,MTT cytotoxicity assay,145 ± 1.7 µM
"CC[C@H](C)[C@H](NC(=O)[C@H](CCCCN)NC(=O)[C@H](CCC(=O)O)NC(=O)[C@H](CCCCN)NC(=O)[C@H](CO)NC(=O)[C@H](CCCCN)NC(=O)[C@H](CCCNC(=N)N)NC(=O)[C@H](Cc1ccccc1)NC(=O)[C@H](Cc1ccccc1)NC(=O)[C@H](CC(=O)O)NC(=O)CNC(=O)[C@H](CC(C)C)NC(=O)[C@@H](N)CC(C)C)C(=O)NCC(=O)N[C@@H](CCCCN)C(=O)N[C@@H](CCC(=O)O)C(=O)N[C@@H](Cc1ccccc1)C(=O)N[C@@H](CCCCN)C(=O)N[C@@H](CCCNC(=N)N)C(=O)N[C@H](C(=O)N[C@H](C(=O)N[C@@H](CCC(N)=O)C(=O)N[C@@H](CCCNC(=N)N)C(=O)N[C@H](C(=O)N[C@@H](CCCCN)C(=O)N[C@@H](CC(=O)O)C(=O)N[C@@H](Cc1ccccc1)C(=O)N[C@@H](CC(C)C)C(=O)N[C@@H](CCCNC(=N)N)C(=O)N[C@@H](CC(N)=O)C(=O)N[C@@H](CC(C)C)C(=O)N[C@H](C(=O)N1CCC[C@H]1C(=O)N[C@@H](CCCNC(=N)N)C(=O)N[C@H](C(=O)N[C@@H](CCC(=O)O)C(=O)N[C@@H](CO)C(=O)O)[C@@H](C)O)C(C)C)[C@@H](C)CC)C(C)C)[C@@H](C)CC [LL-37, reference compound]",Hemolysis % (250 µM peptide),"horse red blood cells; horse RBCs ~5 × 10^8 cells/mL in PBS pH 7.4, 1 h, 37 °C, 250 µM peptide, OD 540 nm, vs 0.1% TritonX100, average of three independent replicates",17.5 ± 0.3%
same,MIC,"Enterococcus faecium; E. faecium ATCC 19434, 10 mM phosphate buffer pH 7.4, 2 h at 37 °C, then MHB overnight, OD 600 nm, average of three independent studies",1.6 µM
same,MBC,"Enterococcus faecium; E. faecium ATCC 19434, plated, 37 °C, lowest concentration with no bacterial growth",3.1 µM
same,MIC,"Acinetobacter baumannii; A. baumannii ATCC 15308, 10 mM phosphate buffer pH 7.4, 2 h at 37 °C, then MHB overnight, OD 600 nm, average of three independent studies",6.3 µM
same,MBC,"Acinetobacter baumannii; A. baumannii ATCC 15308, plated, 37 °C, lowest concentration with no bacterial growth",6.3 µM
same,MIC,"Escherichia coli; E. coli BW25113, 5 × 10^5 CFU/mL in 10 mM phosphate buffer pH 7.4, 2 h at 37 °C, then MHB overnight, OD 600 nm, average of three independent studies",1.6 µM
same,MBC,"Escherichia coli; E. coli BW25113, 50 μL of wells seeded into Petri plates, 37 °C, lowest concentration with no bacterial growth",3.1 µM
same,MIC,"Staphylococcus aureus; S. aureus ATCC 12600, 10 mM phosphate buffer pH 7.4, 2 h at 37 °C, then MHB overnight, OD 600 nm, average of three independent studies",25 µM
same,MBC,"Staphylococcus aureus; S. aureus ATCC 12600, plated, 37 °C, lowest concentration with no bacterial growth",25 µM
same,MIC,"Pseudomonas aeruginosa; P. aeruginosa ATCC 15692, 10 mM phosphate buffer pH 7.4, 2 h at 37 °C, then MHB overnight, OD 600 nm, average of three independent studies",1.6 µM
same,MBC,"Pseudomonas aeruginosa; P. aeruginosa ATCC 15692, plated, 37 °C, lowest concentration with no bacterial growth",1.6 µM
same,MIC,"Micrococcus luteus; M. luteus ATCC 15,307, 10 mM phosphate buffer pH 7.4, 2 h at 37 °C, then MHB overnight, OD 600 nm, average of three independent studies",1.6 µM
same,MBC,"Micrococcus luteus; M. luteus ATCC 15,307, plated, 37 °C, lowest concentration with no bacterial growth",3.1 µM
"CC(C)C[C@@H]1NC(=O)[C@H](CCCNC(=N)N)NC(=O)[C@H](CC(N)=O)NC(=O)CNC(=O)[C@H](Cc2ccc(O)cc2)NC(=O)[C@@H]2CCCN2C(=O)[C@@H](NC(=O)[C@@H](N)Cc2ccc(O)cc2)CSSC[C@@H](C(=O)N[C@@H](CCCNC(=N)N)C(=O)N[C@@H](CCCNC(=N)N)C(=O)N[C@@H](CO)C(=O)N[C@@H](Cc2ccc(O)cc2)C(N)=O)NC(=O)[C@@H]2CSSC[C@H](NC(=O)[C@H](Cc3ccccc3)NC(=O)[C@H](Cc3ccc(O)cc3)NC(=O)[C@H](CC(N)=O)NC1=O)C(=O)N1CCC[C@H]1C(=O)N[C@@H](CC(C)C)C(=O)NCC(=O)N[C@@H](CCCNC(=N)N)C(=O)N[C@@H]([C@@H](C)O)C(=O)N2 [Ct_PaD] (H-YCPYGNRLNYFCPLGRTCCRRSY-NH2; disulfide 2-19, 12-18; N-terminus assumed)",HPLC Retention Time,[1],6.65 min
same,Hemolytic activity (result in words),"horse red blood cells; horse red blood cell lysis, tested up to 250 μM, hemoglobin release at 540 nm",absence of hemolytic activity
same,IC50 at 4 h,"MTT cytotoxicity assay; MRC-5 cells, 4 h peptide incubation, 1.56–200 μM, MTT, OD 570 nm, average of three independent replicates, read-out: MRC-5 cytotoxicity (IC50)",175 ± 1.5 µM
